Data published in article PMC10010340, “The Wnt Pathway Inhibitor RXC004 Blocks Tumor Growth and Reverses Immune Evasion in Wnt Ligand–dependent Cancer Models” (Cancer Research Communications, 2022).
Like-named read-outs stand apart in the source and are kept apart here.

Columns and labels:
CYP1A2 = biological target: T1, CYP1A2 (Homo sapiens, UniProt P05177); test: Cytochrome P450 inhibition in human liver microsomes; assay type: in vitro ADME
T1 construct: from tissue; host or cells: human liver microsomes
Protocol: (§1) Cytochrome P450 (CYP) assays were performed using human liver microsomes incubated with P450 specific substrates as recommended by the FDA ([19]) at a concentration equivalent to Km in the presence of 0.03–30 μmol/L RXC004, or solvent control. Concentration of the metabolites was analyzed by LC/MS-MS.

CYP2C19 = biological target: T2, CYP2C19 (Homo sapiens, UniProt P33261); test: as above; assay type: in vitro ADME
T2 construct: from tissue; host or cells: human liver microsomes
Protocol: as §1

CYP2D6 = biological target: T3, CYP2D6 (Homo sapiens, UniProt P10635); test: as above; assay type: in vitro ADME
T3 construct: from tissue; host or cells: human liver microsomes
Protocol: as §1

CYP3A4 = biological target: T4, CYP3A4 (Homo sapiens, UniProt P08684); test: as above; assay type: in vitro ADME
T4 construct: from tissue; host or cells: human liver microsomes
Protocol: as §1

CYP2C9 = biological target: T5, CYP2C9 (Homo sapiens, UniProt P11712); test: as above; assay type: in vitro ADME
T5 construct: from tissue; host or cells: human liver microsomes
Protocol: as §1

Microsomal stability [1] = assay type: in vitro ADME, rat (Sprague Dawley); conditions: Rat, 1 μmol/L
Protocol: (§2) Metabolic stability: liver microsomes and hepatocytes from human, mouse (CD1), rat (Sprague Dawley) and dog (Beagle) were obtained from Invitrogen. RXC004 (1 μmol/L) was incubated at 37°C with microsomes (0.5 mg · mL^−1) or hepatocytes (0.5 × 10^6 cells · mL^−1). Aliquots were removed at 0–45 minutes and RXC004 concentrations determined by LC/MS-MS analysis. Half-life (T1/2) and intrinsic clearance (CLint) were calculated as described in ref. [18].

In vivo pharmacokinetics [2] = conditions: beagle, dog
Protocol: (§3) In vivo pharmacokinetics: RXC004 was dosed to male Sprague Dawley rats, male CD1 mice or dog (beagle) by intravenous and oral routes. Bioanalysis of blood and plasma samples was performed by LC/MS-MS using a Waters TQS or TQMS mass spectrometer. Pharmacokinetic information was derived using WinNonlin software (Certara).

[3] = tested on: HPAF-II cells cocultured with human PBMCs; test: HPAF-II / human PBMC coculture; assay type: cell-based; conditions: HPAF-II pretreated 100 nmol/L, 3 days
Protocol: HPAF-II cells were incubated for 3 days with RXC004 (100 nmol/L) or DMSO control, washed and detached using Accutase and equal number of viable cells (as assessed by Trypan Blue exclusion) per treatment were reseeded in 96-well plates. Frozen human peripheral blood mononuclear cells (PBMC), originally collected by density gradient separation using Histopaque from four healthy donors, were thawed and cultured in complete media. After approximately 40 hours, nonadherent PBMCs were added to coculture with the HPAF-II cells, at a PBMC:HPAF-II ratio of 5:1. T-cell proliferation and cytokine production was stimulated using Immunocult CD3/CD28-tetramer (Stemcell Technologies #10971). For monoculture nonadherent PBMC experiments, T cells were stimulated using Immunocult in the presence or absence of recombinant Wnt3a (Biotechne #5036-WN-010) and/or recombinant Wnt5a (Biotechne #645-WN-010), both at 100 ng/mL. After 5 days, supernatants from monoculture or coculture experiments were removed for analysis, whereas suspension cells were fixed, stained with anti-Ki67 (BD #563462), anti-CD4 (BioLegend #317420), and anti-CD8 (BD #564116) antibodies, before flow cytometry was performed on a Novocyte flow cytometer. Cytokines and chemokines in the supernatant were quantified using a 30-plex panel on Magpix (Thermo Fisher Scientific #LHC6003M) or ELISA for IFNγ (R&D Systems # DY285B-05).

Microsomal stability [4] = assay type: in vitro ADME, mouse (CD1); conditions: Mouse, 1 μmol/L
Protocol: as §2

Porcupine = biological target: T6, Porcupine (Homo sapiens, UniProt Q9H237); test: Wnt palmitoylation assay (GFP-Wnt1-Fc in HEK293T cells); assay type: cell-based; conditions: 100 nmol/L; GFP-Wnt1-Fc in HEK293T cells with alkyne palmitate
T6 construct: HEK293T cells were transfected with GFP-Wnt1-Fc constructs; endogenous in cells; host or cells: HEK293T
Protocol: Palmitoylation of Wnt was performed by the Burris group, under a fee-for-service agreement, and was detected as described in Galli and colleagues ([16]). Briefly, HEK293T cells were transfected with GFP-Wnt1-Fc constructs, followed by overnight incubation with alkyne palmitate (Alk-C16) in the presence of DMSO or 100 nmol/L RXC004. Cells were lysed and A/G agarose beads used to pull down GFP-Wnt1-Fc, which was then subjected to click chemistry to covalently attach biotin azide to any attached alkyne palmitate. Following SDS-PAGE and Western blotting, palmitoylation of Wnt was detected using Streptavidin IR 800 dye. GFP detection served as a transfection and/or loading control.

SNU-1411 xenograft = test: Xenograft pilot study; assay type: in vivo, mouse (NOD-SCID); conditions: SNU-1411, 1.5 mg/kg twice daily oral
Protocol: The in vivo pilot studies were performed at Axis Bioservices. HPAF-II (5 × 10^6 cells; athymic nude mice), AsPC1 (3 × 10^6 cells; athymic nude mice), and SNU-1411 (1 × 10^7 cells; NOD-SCID mice) were implanted bilaterally, subcutaneously, whereas HCT116 (3 × 10^6 cells; athymic nude mice) were implanted in a single flank. Animals were randomized into the indicated groups and treatment initiated once tumor volumes reached approximately 100–150 mm^3. Dosing was either 1.5 mg/kg twice daily RXC004 for 7–13 days then once daily for the remainder of study (up to 29 days), or 28 days 1.5 mg/kg twice daily RXC004 for HCT116. In these and all other animal studies, unless otherwise specified, RXC004 was dosed orally in 0.5% carboxymethylcellulose + 0.1% Tween-80. For AsPC1, an ascites model, end of study tumor weight (mg) was measured. A total of 12 hours after the final dose, RNA was extracted [GenElute RNA isolation kit (#RTN70, Sigma)] from snap frozen tumor for qRT-PCR expression analysis of Axin2, c-Myc, RNF43, MUC4, and MUC5AC relative to appropriate housekeepers.

In vivo pharmacokinetics [5] = test: In vivo pharmacokinetics; design: species or system rat (male Sprague Dawley); conditions: rat
Protocol: as §3

[6] = male, Sprague Dawley, in vivo, po, 5 mg/kg p.o.

T6 sequence (Q9H237 whole entry): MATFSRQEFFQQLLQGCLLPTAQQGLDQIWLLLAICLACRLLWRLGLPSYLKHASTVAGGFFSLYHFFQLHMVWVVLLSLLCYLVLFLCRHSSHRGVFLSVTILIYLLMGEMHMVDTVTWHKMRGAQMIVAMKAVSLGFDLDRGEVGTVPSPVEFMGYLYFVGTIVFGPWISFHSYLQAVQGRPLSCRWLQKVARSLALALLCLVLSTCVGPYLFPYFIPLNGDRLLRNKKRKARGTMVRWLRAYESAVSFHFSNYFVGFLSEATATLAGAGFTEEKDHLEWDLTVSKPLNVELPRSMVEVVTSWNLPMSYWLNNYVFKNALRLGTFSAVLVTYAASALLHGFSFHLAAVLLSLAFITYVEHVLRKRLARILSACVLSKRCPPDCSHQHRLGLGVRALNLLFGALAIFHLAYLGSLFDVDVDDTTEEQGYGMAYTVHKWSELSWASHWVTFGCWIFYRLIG
T2 sequence (P33261 whole entry): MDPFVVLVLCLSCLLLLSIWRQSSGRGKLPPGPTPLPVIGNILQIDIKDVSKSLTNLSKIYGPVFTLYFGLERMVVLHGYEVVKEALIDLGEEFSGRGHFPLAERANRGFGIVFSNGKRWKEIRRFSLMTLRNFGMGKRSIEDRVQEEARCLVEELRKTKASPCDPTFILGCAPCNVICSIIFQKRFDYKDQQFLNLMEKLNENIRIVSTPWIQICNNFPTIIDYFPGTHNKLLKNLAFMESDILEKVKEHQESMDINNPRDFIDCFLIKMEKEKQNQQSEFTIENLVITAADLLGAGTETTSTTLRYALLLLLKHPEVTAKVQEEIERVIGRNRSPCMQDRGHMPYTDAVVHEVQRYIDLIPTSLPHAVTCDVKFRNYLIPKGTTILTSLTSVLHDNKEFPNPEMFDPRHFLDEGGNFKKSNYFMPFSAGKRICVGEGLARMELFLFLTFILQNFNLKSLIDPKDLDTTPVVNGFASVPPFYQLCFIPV
T5 sequence (P11712 whole entry): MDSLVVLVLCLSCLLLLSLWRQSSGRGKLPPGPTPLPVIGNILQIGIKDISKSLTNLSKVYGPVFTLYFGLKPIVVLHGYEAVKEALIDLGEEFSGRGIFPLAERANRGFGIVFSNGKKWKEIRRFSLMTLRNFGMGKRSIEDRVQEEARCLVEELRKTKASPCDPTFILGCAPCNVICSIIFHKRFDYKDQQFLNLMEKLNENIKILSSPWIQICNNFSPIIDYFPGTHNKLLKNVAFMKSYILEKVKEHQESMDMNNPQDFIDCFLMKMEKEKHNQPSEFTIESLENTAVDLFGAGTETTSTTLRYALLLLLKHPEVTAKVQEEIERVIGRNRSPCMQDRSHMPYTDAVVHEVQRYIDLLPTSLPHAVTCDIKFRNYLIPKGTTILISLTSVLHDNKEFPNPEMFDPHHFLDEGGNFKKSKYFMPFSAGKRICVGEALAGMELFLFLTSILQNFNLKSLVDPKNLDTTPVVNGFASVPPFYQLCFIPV
T3 sequence (P10635 whole entry): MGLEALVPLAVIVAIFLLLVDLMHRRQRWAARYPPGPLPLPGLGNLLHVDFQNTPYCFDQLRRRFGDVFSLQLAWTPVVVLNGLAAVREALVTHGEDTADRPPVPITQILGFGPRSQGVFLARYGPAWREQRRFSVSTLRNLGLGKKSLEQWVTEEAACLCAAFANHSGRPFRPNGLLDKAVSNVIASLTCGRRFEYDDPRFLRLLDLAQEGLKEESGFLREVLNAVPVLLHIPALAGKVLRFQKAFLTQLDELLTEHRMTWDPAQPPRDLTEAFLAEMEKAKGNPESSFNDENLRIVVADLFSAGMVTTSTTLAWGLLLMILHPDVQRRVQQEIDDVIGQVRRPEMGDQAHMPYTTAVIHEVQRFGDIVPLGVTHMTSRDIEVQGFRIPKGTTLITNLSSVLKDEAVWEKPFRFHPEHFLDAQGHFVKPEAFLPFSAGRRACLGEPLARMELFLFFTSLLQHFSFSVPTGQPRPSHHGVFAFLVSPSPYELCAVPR
T4 sequence (P08684 whole entry): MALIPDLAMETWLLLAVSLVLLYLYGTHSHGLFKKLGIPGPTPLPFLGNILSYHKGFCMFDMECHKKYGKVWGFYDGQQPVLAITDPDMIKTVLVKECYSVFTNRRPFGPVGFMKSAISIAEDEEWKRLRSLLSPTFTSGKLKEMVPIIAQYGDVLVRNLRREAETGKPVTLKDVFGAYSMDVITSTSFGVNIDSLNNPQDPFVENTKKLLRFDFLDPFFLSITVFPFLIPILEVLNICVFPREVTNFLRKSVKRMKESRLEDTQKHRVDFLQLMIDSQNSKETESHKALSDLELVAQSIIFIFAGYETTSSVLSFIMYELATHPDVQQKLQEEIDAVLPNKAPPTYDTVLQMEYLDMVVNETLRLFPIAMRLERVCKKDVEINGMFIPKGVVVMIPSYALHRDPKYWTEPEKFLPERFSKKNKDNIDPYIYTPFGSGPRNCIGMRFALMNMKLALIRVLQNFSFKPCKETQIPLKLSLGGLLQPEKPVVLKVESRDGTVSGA
T1 sequence (P05177 whole entry): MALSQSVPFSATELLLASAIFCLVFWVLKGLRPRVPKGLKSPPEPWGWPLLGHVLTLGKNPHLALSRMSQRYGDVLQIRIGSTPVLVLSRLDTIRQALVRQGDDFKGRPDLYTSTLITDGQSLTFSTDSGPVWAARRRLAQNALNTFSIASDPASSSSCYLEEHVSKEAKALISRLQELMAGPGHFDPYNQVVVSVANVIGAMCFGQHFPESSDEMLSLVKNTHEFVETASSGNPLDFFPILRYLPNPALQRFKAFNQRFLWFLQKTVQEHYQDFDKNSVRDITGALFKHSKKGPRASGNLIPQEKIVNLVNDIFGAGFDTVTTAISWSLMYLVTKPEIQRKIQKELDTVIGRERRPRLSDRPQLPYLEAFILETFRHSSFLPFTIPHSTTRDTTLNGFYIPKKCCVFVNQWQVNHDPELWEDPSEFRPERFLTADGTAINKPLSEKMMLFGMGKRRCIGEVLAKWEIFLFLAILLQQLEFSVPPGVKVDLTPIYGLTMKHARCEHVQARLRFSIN

With `Cc1c(-c2ccnc(C(F)(F)F)c2)ncn1CC(=O)Nc1ccc(-c2cnccn2)cn1` [RXC004, 2-[5-methyl-4-[2-(trifluoromethyl)-4-pyridyl]imidazol-1-yl]-N-(5-pyrazin-2-yl-2-pyridyl)acetamide] the IC50 (CYP1A2) was greater than 25 µM, the IC50 (CYP2C19) was greater than 25 µM and the IC50 (CYP2D6) was greater than 25 µM. For the same compound, the IC50 (CYP3A4) was greater than 25 µM, the IC50 (CYP2C9) was greater than 25 µM and the “Microsomal stability: CLint” value (Microsomal stability [1]) was 7.8 μL minute^−^1 · mg^−^1. It also gave a half-life (In vivo pharmacokinetics [2]; dose i.v./p.o. 2/5 mg/kg, read-out: T½ (converted)) of 48 min, a clearance (In vivo pharmacokinetics [2]; intravenous, 2 mg/kg, dose i.v./p.o. 2/5 mg/kg) of 8.9 mL/min/kg and a Vd (In vivo pharmacokinetics [2]; intravenous, 2 mg/kg, dose i.v./p.o. 2/5 mg/kg, read-out: Vss) of 0.39 L/kg. It also gave an AUC(0-inf) (In vivo pharmacokinetics [2]; po, 5 mg/kg p.o.) of 8.6 µM·h, a Cmax (In vivo pharmacokinetics [2]; po, 5 mg/kg p.o.) of 10.4 µM and a concentration at 24 h (In vivo pharmacokinetics [2]; po, 5 mg/kg p.o., read-out: C24h (p.o.)) of 12 nM. The “HPAF-II inhibition of T-cell proliferation and IFNγ/GMCSF release” value [3] was “fully reversed”, the “release of CXCL9” value [3] was “potentiated the HPAF-II–dependent release of the chemokine CXCL9” and the “secretion of VEGF” value [3] was “reducing the HPAF-II–dependent secretion of the angiogenesis promoting growth factor VEGF”. The “Microsomal stability: CLint” value (Microsomal stability [4]) was 3.9 μL minute^−^1 · mg^−^1, the “palmitoylation of Wnt” value (Porcupine) was “inhibited palmitoylation of Wnt” and the “Wnt-responsive gene expression in tumor including c-Myc” value (SNU-1411 xenograft) was “inhibition of Wnt-responsive gene expression”. For the same compound, the tumor growth (SNU-1411 xenograft) was “reduction in tumor growth”, the clearance (In vivo pharmacokinetics [5]; male, Sprague Dawley, in vivo, intravenous, 2 mg/kg, dose i.v./p.o. 2/5 mg/kg) was 5.8 mL/min/kg and the Vd (In vivo pharmacokinetics [5]; male, Sprague Dawley, in vivo, intravenous, 2 mg/kg, dose i.v./p.o. 2/5 mg/kg, read-out: Vss) was 0.64 L/kg. It also gave an AUC(0-inf) (In vivo pharmacokinetics [5]; [6]) of 10.5 µM·h, a Cmax (In vivo pharmacokinetics [5]; [6]) of 3.6 µM and a concentration at 24 h (In vivo pharmacokinetics [5]; male, Sprague Dawley, in vivo, po, 5 mg/kg p.o., read-out: C24h (p.o.)) of 9 nM. For the same compound, the half-life (In vivo pharmacokinetics [5]; male, Sprague Dawley, in vivo, dose i.v./p.o. 2/5 mg/kg, read-out: T½ (converted)) was 150 min and the “F (p.o.)” value (In vivo pharmacokinetics [5]; dose i.v./p.o. 2/5 mg/kg) was 31%.
